Molecular target: T1, chimeric human H3 receptor (Homo sapiens, UniProt Q9Y5N1, E19D)
T1 construct: made in house; host or cells: Sf9 insect cells (baculovirus infection); P2 membrane preparation
Test: Chimeric human H3 receptor GTP binding assay (agonist-stimulated GTP-gamma35S binding, Example 7)
Type: biochemical
Details: Table II; assay of Example 7; "*" in Ki; read-out: Ki
Procedure, shortened: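 IC50 values come from non-linear regression of dose-response curves of filter-bound GTP-gamma^35S, counted by scintillation. Membranes were from infected Sf9 cells carrying receptor plus G-protein subunits, 35 μg/tube, with 10 μM GDP present.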

T1 sequence (Q9Y5N1 with tags, fused parts or gaps E19D): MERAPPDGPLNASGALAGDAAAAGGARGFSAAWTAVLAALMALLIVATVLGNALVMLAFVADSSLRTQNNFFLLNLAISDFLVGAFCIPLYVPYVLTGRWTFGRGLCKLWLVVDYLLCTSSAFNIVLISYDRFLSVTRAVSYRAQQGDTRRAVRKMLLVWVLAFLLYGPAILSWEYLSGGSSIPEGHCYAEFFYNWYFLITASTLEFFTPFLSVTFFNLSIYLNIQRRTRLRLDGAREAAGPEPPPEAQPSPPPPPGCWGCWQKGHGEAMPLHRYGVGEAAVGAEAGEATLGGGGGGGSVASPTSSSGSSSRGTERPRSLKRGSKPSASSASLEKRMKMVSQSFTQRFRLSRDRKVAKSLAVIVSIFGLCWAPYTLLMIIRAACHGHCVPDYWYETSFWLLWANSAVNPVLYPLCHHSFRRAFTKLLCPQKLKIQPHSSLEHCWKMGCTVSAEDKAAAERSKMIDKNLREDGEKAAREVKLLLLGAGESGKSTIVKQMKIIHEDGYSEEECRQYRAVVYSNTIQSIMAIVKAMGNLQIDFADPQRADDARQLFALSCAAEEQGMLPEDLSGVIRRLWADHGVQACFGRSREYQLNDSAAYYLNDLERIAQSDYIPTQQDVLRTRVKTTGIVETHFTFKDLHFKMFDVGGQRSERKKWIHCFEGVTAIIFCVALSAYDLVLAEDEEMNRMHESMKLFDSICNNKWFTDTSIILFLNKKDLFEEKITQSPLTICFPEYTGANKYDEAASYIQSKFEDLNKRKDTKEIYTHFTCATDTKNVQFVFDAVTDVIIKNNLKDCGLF

Ki [µM]	SMILES
< 1	CCN(C(=O)c1ccc(N2CCN(CC(=O)N3CCN(C4CCC4)CC3)CC2)cc1)C(C)C [Compound 1126, 4-{4-[2-(4-cyclobutylpiperazin-1-yl)-2-oxoethyl]piperazin-1-yl}-N-ethyl-N-isopropylbenzamide]
< 1	CC(C)N(C)C(=O)c1ccc(N2CCN(CC(=O)N3CCN(C4CCC4)CC3)CC2)cc1 [Compound 1127, 4-{4-[2-(4-cyclobutylpiperazin-1-yl)-2-oxoethyl]piperazin-1-yl}-N-isopropyl-N-methylbenzamide]
< 1	CN(C(=O)c1ccc(N2CCN(CC(=O)N3CCN(C4CCC4)CC3)CC2)cc1)C1CCCCC1 [Compound 1128, 4-{4-[2-(4-cyclobutylpiperazin-1-yl)-2-oxoethyl]piperazin-1-yl}-N-cyclohexyl-N-methylbenzamide]
< 1	CCN(C(=O)c1ccc(N2CCN(CC(=O)N3CCN(C4CCC4)CC3)CC2)cc1)C1CCCCC1 [Compound 1129, 4-{4-[2-(4-cyclobutylpiperazin-1-yl)-2-oxoethyl]piperazin-1-yl}-N-cyclohexyl-N-ethylbenzamide]
< 1	COCCN(C(=O)c1ccc(N2CCN(CC(=O)N3CCN(C4CCC4)CC3)CC2)cc1)C(C)C [Compound 1130, 4-{4-[2-(4-cyclobutylpiperazin-1-yl)-2-oxoethyl]piperazin-1-yl}-N-isopropyl-N-(2-methoxyethyl)benzamide]
< 1	CCC(C)CNC(=O)c1ccc(N2CCN(CC(=O)N3CCN(C4CCC4)CC3)CC2)cc1 (centres unmarked) [Compound 1131, 4-{4-[2-(4-cyclobutylpiperazin-1-yl)-2-oxoethyl]piperazin-1-yl}-N-(2-methylbutyl)benzamide]
< 1	CCCNC(=O)c1ccc(N2CCN(CC(=O)N3CCN(C4CCC4)CC3)CC2)cc1 [Compound 1132, 4-{4-[2-(4-cyclobutylpiperazin-1-yl)-2-oxoethyl]piperazin-1-yl}-N-propylbenzamide]
< 1	O=C(NCC1CC1)c1ccc(N2CCN(CC(=O)N3CCN(C4CCC4)CC3)CC2)cc1 [Compound 1133, 4-{4-[2-(4-cyclobutylpiperazin-1-yl)-2-oxoethyl]piperazin-1-yl}-N-(cyclopropylmethyl) benzamide]
< 1	CC(C)CNC(=O)c1ccc(N2CCN(CC(=O)N3CCN(C4CCC4)CC3)CC2)cc1 [Compound 1134, 4-{4-[2-(4-cyclobutylpiperazin-1-yl)-2-oxoethyl]piperazin-1-yl}-N-isobutylbenzamide]
< 1	CCCCCNC(=O)c1ccc(N2CCN(CC(=O)N3CCN(C4CCC4)CC3)CC2)cc1 [Compound 1135, 4-{4-[2-(4-cyclobutylpiperazin-1-yl)-2-oxoethyl]piperazin-1-yl}-N-pentylbenzamide]
< 1	CC(C)CCNC(=O)c1ccc(N2CCN(CC(=O)N3CCN(C4CCC4)CC3)CC2)cc1 [Compound 1136, 4-{4-[2-(4-cyclobutylpiperazin-1-yl)-2-oxoethyl]piperazin-1-yl}-N-(3-methylbutyl)benzamide]
< 1	O=C(NCC(F)(F)F)c1ccc(N2CCN(CC(=O)N3CCN(C4CCC4)CC3)CC2)cc1 [Compound 1137, 4-{4-[2-(4-cyclobutylpiperazin-1-yl)-2-oxoethyl]piperazin-1-yl}-N-(2,2,2-trifluoroethyl)benzamide]

Same assay, conditions: assay of Example 7; "*" in Ki of Table II; read-out: Ki

SMILES	Ki [µM]
O=C(NC1CC1)c1ccc(N2CCN(CC(=O)N3CCN(C4CCC4)CC3)CC2)cc1 [Compound 1138, 4-{4-[2-(4-cyclobutylpiperazin-1-yl)-2-oxoethyl]piperazin-1-yl}-N-cyclopropylbenzamide]	< 1
O=C(NC1CCCCC1)c1ccc(N2CCN(CC(=O)N3CCN(C4CCC4)CC3)CC2)cc1 [Compound 1139, 4-{4-[2-(4-cyclobutylpiperazin-1-yl)-2-oxoethyl]piperazin-1-yl}-N-cyclohexylbenzamide]	< 1
CC(C)NC(=O)c1ccc(N2CCN(CC(=O)N3CCN(C4CCC4)CC3)CC2)cc1 [Compound 1140, 4-{4-[2-(4-cyclobutylpiperazin-1-yl)-2-oxoethyl]piperazin-1-yl}-N-isopropylbenzamide]	< 1
O=C(NC1CCCC1)c1ccc(N2CCN(CC(=O)N3CCN(C4CCC4)CC3)CC2)cc1 [Compound 1141, 4-{4-[2-(4-cyclobutylpiperazin-1-yl)-2-oxoethyl]piperazin-1-yl}-N-cyclopentylbenzamide]	< 1
CCCC(C)NC(=O)c1ccc(N2CCN(CC(=O)N3CCN(C4CCC4)CC3)CC2)cc1 (centres unmarked) [Compound 1142, 4-{4-[2-(4-cyclobutylpiperazin-1-yl)-2-oxoethyl]piperazin-1-yl}-N-(1-methylbutyl)benzamide]	< 1
O=C(NC1CCCCCC1)c1ccc(N2CCN(CC(=O)N3CCN(C4CCC4)CC3)CC2)cc1 [Compound 1143, 4-{4-[2-(4-cyclobutylpiperazin-1-yl)-2-oxoethyl]piperazin-1-yl}-N-cycloheptylbenzamide]	< 1
O=C(NCC1CCCCC1)c1ccc(N2CCN(CC(=O)N3CCN(C4CCC4)CC3)CC2)cc1 [Compound 1144, 4-{4-[2-(4-cyclobutylpiperazin-1-yl)-2-oxoethyl]piperazin-1-yl}-N-(cyclohexylmethyl) benzamide]	< 1
CC(C)(C)CNC(=O)c1ccc(N2CCN(CC(=O)N3CCN(C4CCC4)CC3)CC2)cc1 [Compound 1145, 4-{4-[2-(4-cyclobutylpiperazin-1-yl)-2-oxoethyl]piperazin-1-yl}-N-(2,2-dimethylpropyl) benzamide]	< 1
CCC(CC)CNC(=O)c1ccc(N2CCN(CC(=O)N3CCN(C4CCC4)CC3)CC2)cc1 [Compound 1146, 4-{4-[2-(4-cyclobutylpiperazin-1-yl)-2-oxoethyl]piperazin-1-yl}-N-(2-ethylbutyl)benzamide]	< 1
N#Cc1ccc(N2CCN(CC(=O)N3CCN(C4CCCCC4)CC3)CC2)cc1 [Compound 1147, 4-{4-[2-(4-cyclohexylpiperazin-1-yl)-2-oxoethyl]piperazin-1-yl}benzonitrile]	< 1
N#Cc1ccc(N2CCN(CC(=O)N3CCN(C4CCCC4)CC3)CC2)cc1 [Compound 1148, 4-{4-[2-(4-cyclopentylpiperazin-1-yl)-2-oxoethyl]piperazin-1-yl}benzonitrile]	< 1
CC(C)N1CCN(C(=O)CN2CCN(c3ccc(C#N)cc3)CC2)CC1 [Compound 1149, 4-{4-[2-(4-isopropylpiperazin-1-yl)-2-oxoethyl]piperazin-1-yl}benzonitrile]	< 1

Other lines, results leading:

Ki [µM]	SMILES
< 1	CCC(C)N1CCN(C(=O)CN2CCN(c3ccc(C#N)cc3)CC2)CC1 (centres unmarked) [Compound 1150, 4-{4-[2-(4-sec-butylpiperazin-1-yl)-2-oxoethyl]piperazin-1-yl}benzonitrile]
< 1	CC(C)(C)c1ccc(C(=O)NC2CCN(CC(=O)N3CCN(C4CCC4)CC3)C2)cc1 (centres unmarked) [Compound 1152, 4-tert-butyl-N-{1-[2-(4-cyclobutylpiperazin-1-yl)-2-oxoethyl]pyrrolidin-3-yl}benzamide]
< 1	O=C(CN1CCN(c2ccc(-c3cncnc3)cc2)CC1)N1CCN(C2CCC2)CC1 [Compound 1154, 5-(4-{4-[2-(4-cyclobutylpiperazin-1-yl)-2-oxoethyl]piperazin-1-yl}phenyl)pyrimidine]
< 1	CN1Cc2cc(N3CCN(CC(=O)N4CCN(C5CCC5)CC4)CC3)ccc2C1=O [Compound 1155, 5-{4-[2-(4-cyclobutylpiperazin-1-yl)-2-oxoethyl]piperazin-1-yl}-2-methylisoindolin-1-one]
< 1	O=C1OCc2cc(N3CCN(CC(=O)N4CCN(C5CCC5)CC4)CC3)ccc21 [Compound 1156, 5-{4-[2-(4-cyclobutylpiperazin-1-yl)-2-oxoethyl]piperazin-1-yl}-2-benzofuran-1(3H)-one]
< 1	O=C1CCc2cc(N3CCN(CC(=O)N4CCN(C5CCC5)CC4)CC3)ccc21 [Compound 1157, 5-{4-[2-(4-cyclobutylpiperazin-1-yl)-2-oxoethyl]piperazin-1-yl}indan-1-one]
< 1	N#Cc1cnc(N2CCN(CC(=O)N3CCN(C4CCC4)CC3)CC2)cn1 [Compound 1158, 5-{4-[2-(4-cyclobutylpiperazin-1-yl)-2-oxoethyl]piperazin-1-yl}pyrazine-2-carbonitrile]
< 1	O=C1OCc2cc(N3CCN(CC(=O)N4CCN(C5CCCC5)CC4)CC3)ccc21 [Compound 1159, 5-{4-[2-(4-cyclopentylpiperazin-1-yl)-2-oxoethyl]piperazin-1-yl}-2-benzofuran-1(3H)-one]
< 1	O=C1CCc2cc(N3CCN(CC(=O)N4CCN(C5CCCC5)CC4)CC3)ccc21 [Compound 1160, 5-{4-[2-(4-cyclopentylpiperazin-1-yl)-2-oxoethyl]piperazin-1-yl}indan-1-one]
< 1	CC(C)CN1CCN(C(=O)CN2CCN(c3ccc4c(c3)COC4=O)CC2)CC1 [Compound 1161, 5-{4-[2-(4-isobutylpiperazin-1-yl)-2-oxoethyl]piperazin-1-yl}-2-benzofuran-1(3H)-one]
< 1	CC(C)CN1CCN(C(=O)CN2CCN(c3ccc4c(c3)CCC4=O)CC2)CC1 [Compound 1162, 5-{4-[2-(4-isobutylpiperazin-1-yl)-2-oxoethyl]piperazin-1-yl}indan-1-one]
< 1	O=C1CCCc2cc(N3CCN(CC(=O)N4CCN(C5CCC5)CC4)CC3)ccc21 [Compound 1165, 6-{4-[2-(4-cyclobutylpiperazin-1-yl)-2-oxoethyl]piperazin-1-yl}-3,4-dihydronaphthalen-1(2H)-one]
< 1	O=C(NC1CCCC1)c1ccc(N2CCN(CC(=O)N3CCN(C4CCC4)CC3)CC2)nn1 [Compound 1166, 6-{4-[2-(4-cyclobutylpiperazin-1-yl)-2-oxoethyl]piperazin-1-yl}-N-cyclopentylpyridazine-3-carboxamide]
< 1	CNC(=O)c1ccc(N2CCN(CC(=O)N3CCN(C4CCC4)CC3)CC2)nc1 [Compound 1167, 6-{4-[2-(4-cyclobutylpiperazin-1-yl)-2-oxoethyl]piperazin-1-yl}-N-methylnicotinamide]

From patent publication US7851474B2, “Dipiperazinyl ketones and related analogues” (Neurogen Corporation, priority 2005, dated 2010)
